# Columns and labels:
# tau [1] = target: T1, tau (Homo sapiens, UniProt P10636); test: thioflavine T stain of heparin-induced tau aggregation; type: biochemical; settings: 10 μM tau
# tau [2] = target: T1, tau; test: sucrose-density gradient centrifugation with SDS-PAGE western blotting of tau; type: biochemical; settings: for amount of tau (granular and filamentous tau aggregates) fractionated into Fr3 and subsequent fractions: FIG. 11; for amount of tau in fractions Fr3, 4, 5, and 6: compound 100 μM, FIG. 2
# tau [3] = target: T1, tau; test: quantification of insoluble tau pellet after centrifugation at 250000 xg; type: biochemical; settings: pellet after 250000 xg for 2 h
# Procedure: For this analysis, 10-μM tau, a compound (1 μM, 10 μM, or 100 μM), and thioflavine T (a beta-pleated sheet structure-specific detection reagent) were mixed together. Thereafter, heparin, which is a tau aggregation inducer, was added to the mixture, and the resulting mixture was incubated at 37° C., thereby allowing tau to aggregate. Subsequently, the thioflavine T activity in an incubation sample was measured at various times to investigate tau aggregation inhibition effects by the compounds.
# To further investigate the effects of these nine compounds on tau aggregation specifically, samples that had been incubated at 37° C. were centrifuged at 250000 ×g for 2 h, the resultant pellets were obtained so that the amount of insoluble tau were quantified.
# P301L tau Tg mice = test: sarkosyl-insoluble tau in brains of P301L tau Tg mice; type: in vivo
# tau [4] = target: T1, tau; test: atomic force microscope observation of tau aggregation; type: biochemical; settings: sample incubated for 120 hours; FIG. 12
# Procedure: Thereafter, to analyze a change of tau aggregation by d-isoprenaline morphologically, the sample was investigated by using an atomic force microscope. A tau aggregation sample that had been incubated for 120 hours was loaded on a mica board and adsorbed thereon. […] FIG. 12A is a photograph of a control, FIG. 12B is a photograph showing effects of d-isoprenaline on a tau aggregation sample, and FIG. 12C is a graph of measured major axes of tau aggregation.
# human P301L mutant tau [5] = target: T2, human P301L mutant tau (Homo sapiens, UniProt P10636, P618L); test: SDS-insoluble tau in Neuro2a cells expressing P301L mutant tau; type: cell-based; settings: Neuro2a cells, 0.01, 0.1 and 1 μM isoprenaline for 48 hours; FIG. 3
# T2 construct: expressed in transfected cells
# human P301L mutant tau [6] = target: T2, human P301L mutant tau; test: tau phosphorylation (AT8) in RIPA-soluble fractions of Neuro2a cells; type: cell-based; settings: RIPA-soluble fraction, FIG. 4
# Procedure: As cells, Neuro2a cell lines in which human P301L mutant tau (i.e., mutant tau in which 301st proline of tau is changed to leucine) is expressed in stable were used. […] Then, SDS-insoluble fractions were obtained so that a change in the amounts of tau was observed.
# In addition, changes of tau phosphorylation in radio-immunoprecipitation assay (RIPA) buffer-soluble fractions obtained from similar cells were analyzed. […] The composition of the RIPA buffer was 50 mM Tris-HCl (pH7.4), 150 mM sodium chloride, 0.25 w/v % sodium deoxycholate, 1 mM EGTA, and 1.0 w/v % NP-40 substitute.
# WT tau [7] = target: T3, WT tau (Homo sapiens, UniProt P10636); test: MC1 dot blotting and AT8 phosphorylation in WT tau-expressing COS-7 cells; type: cell-based, African green monkey
# T3 construct: expressed in transfected cells; host or cells: COS-7 (African green monkey kidney)
# Text: Tau phosphorylations at AT8 sites are known to induce a tau conformational change (that can be detected with the MC1 antibody) observed in AD brains. Thus, WT tau was expressed in COS-7 cells (derived from African green monkey kidney), and a tau conformational change was detected by dot blotting using the MC1 antibody. The dot blotting is a technique of fixing protein to a nitrocellulose membrane or a PVDF membrane without separation through electrophoresis and specifically quantitating the protein amount with enzyme-labeled antibodies.
# WT tau [8] = target: T3, WT tau; test: tau and acetylated tubulin in microtubule fraction of WT tau-expressing COS-7 cells; type: cell-based, African green monkey; settings: 10 μM, 24 hours
# Procedure: The homogenates were then centrifuged at 3000×g for 5 min at 25° C., and thea supernatant was obtained as a total fraction. The total fraction was further centrifuged at 100000×g for 20 min at 20° C., and a pellet (a microtubule fraction) was obtained. In this manner, the microtubule fraction was taken from the COS-7 cells expressing WT tau, and acetylated tubulin serving as an index of tau and microtubule stabilization was detected.
# WT tau Tg mice = test: tau dephosphorylation (tau1 antibody) in TBS-soluble fractions from WT tau Tg mice; type: in vivo; settings: TBS-soluble fraction; FIG. 9
# Text: A change in tau phosphorylation in TBS-soluble fractions from WT tau Tg mice was investigated.
# T1 sequence (P10636 1-441 isoform P10636-8): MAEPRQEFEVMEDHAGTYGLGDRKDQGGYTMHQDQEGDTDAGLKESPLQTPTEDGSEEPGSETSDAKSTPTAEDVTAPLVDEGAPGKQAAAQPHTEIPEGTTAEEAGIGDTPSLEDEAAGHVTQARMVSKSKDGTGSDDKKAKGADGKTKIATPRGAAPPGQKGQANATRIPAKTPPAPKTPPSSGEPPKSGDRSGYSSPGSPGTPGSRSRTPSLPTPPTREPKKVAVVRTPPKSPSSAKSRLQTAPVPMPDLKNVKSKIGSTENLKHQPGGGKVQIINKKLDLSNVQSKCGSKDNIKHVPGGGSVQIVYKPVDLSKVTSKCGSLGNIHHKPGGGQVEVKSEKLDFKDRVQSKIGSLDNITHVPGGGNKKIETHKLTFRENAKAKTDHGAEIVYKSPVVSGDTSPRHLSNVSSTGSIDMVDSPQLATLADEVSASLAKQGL
# T3 sequence (P10636 1-441 isoform P10636-8): as above
# T2 sequence (P10636 1-441 isoform P10636-8 P301L): as the sequence (P10636 1-441 isoform P10636-8) above, with P301L counted along it
smiles,measurement,setting,value
"CC(C)NCC(O)c1ccc(O)c(O)c1 (racemic) [d/l-isoprenaline, mixture of (S)-(+)-isoprenaline and (R)-(−)-isoprenaline]",thioflavine T activity,"tau [1]; compound 1-100 μM, FIG. 10",inhibition of thioflavine T activity
same,amount of tau (granular and filamentous tau aggregates) fractionated into Fr3 and subsequent fractions,tau [2],apparently reduced the amount of tau
CNC[C@H](O)c1ccc(O)c(O)c1 [(R)-(−)-epinephrine],thioflavine T activity,"tau [1]; FIG. 1, heparin, 37° C.",significantly reduced thioflavine T activity
same,amount of insoluble tau,tau [3],reduced the amount of insoluble tau in a concentration dependent manner
same,"amount of tau in fractions Fr3, 4, 5, and 6",tau [2],"reduced the amount of tau in fractions Fr3, 4, 5, and 6"
"CC(C)NC[C@@H](O)c1ccc(O)c(O)c1 [d-isoprenaline, (S)-(+)-isoprenaline]",thioflavine T activity,"tau [1]; compound 1-100 μM, FIG. 10",inhibition of thioflavine T activity similar to that of d/l-isoprenaline
same,amount of tau (granular and filamentous tau aggregates) fractionated into Fr3 and subsequent fractions,tau [2],apparently reduced the amount of tau
same,amount of insoluble tau in cerebral cortices,"P301L tau Tg mice; mice aged 20-21 months, 2.168 mg/g fed in mash for three months, FIGS. 13, 14",apparently reduced the amount of insoluble tau
same,amount of insoluble tau in hippocampi,"P301L tau Tg mice; mice aged 20-21 months, 2.168 mg/g fed in mash for three months, FIGS. 15, 16",apparently reduced the amount of insoluble tau
same,number of tau aggregates having major axes of 20 nm or more,tau [4],apparently reduced the number of tau aggregates
NCCc1ccc(O)c(O)c1 [dopamine],thioflavine T activity,"tau [1]; FIG. 1, heparin, 37° C.",significantly reduced thioflavine T activity
CC(C)NCC(O)c1ccc(O)c(O)c1 (centres unmarked) [isoprenaline],thioflavine T activity,"tau [1]; FIG. 1, heparin, 37° C.",significantly reduced thioflavine T activity
same,"amount of tau in fractions Fr3, 4, 5, and 6",tau [2],"reduced the amount of tau in fractions Fr3, 4, 5, and 6"
same,amount of SDS-insoluble tau,human P301L mutant tau [5],reduced the amounts of SDS-insoluble tau
same,tau phosphorylation (AT8),human P301L mutant tau [6],reduced tau phosphorylation
same,tau phosphorylation (AT8 sites),WT tau [7]; FIG. 5C,also reduced phosphorylation
same,tau conformational change detected with MC1 antibody,"WT tau [7]; TBS-soluble fraction, FIG. 5A, 5B",reduced the tau conformational change
same,amount of tau in the microtubule fraction,WT tau [8]; FIG. 6A-C,increased the amount of tau in the microtubule fraction
same,amount of acetylated tubulin,WT tau [8]; FIG. 6D-F,further increased the amount of acetylated tubulin
same,amount of sarkosyl-insoluble tau in the brains,"P301L tau Tg mice; 1.5 mg/g fed mixed in mash for three months, FIG. 7",reduced the amount of sarkosyl-insoluble tau
same,dephosphorylation of tau labeled by tau1 antibody,WT tau Tg mice,induced dephosphorylation of tau
[Cl-].[Li+] [lithium chloride],amount of SDS-insoluble tau,human P301L mutant tau [5],reduced the amounts of SDS-insoluble tau
NC[C@H](O)c1ccc(O)c(O)c1 [norepinephrine],thioflavine T activity,"tau [1]; FIG. 1, heparin, 37° C.",significantly reduced thioflavine T activity

# Reference: patent US20180161288A1, “TAU AGGREGATION INHIBITOR” (National Center for Geriatrics and Gerontology, priority 2011, published 2018)
